# Species on record: Rattus norvegicus
# Assay: DrugMatrix - Regimen: Daily Repeat
# Assay type: toxicity, organism-based, Sprague-Dawley
# Set-up: regimen Daily Repeat, gender Male, age 6-8 weeks
# Details: in vivo, po, route oral GAVAGE, […]; for ABSOLUTE BASOPHIL / ABSOLUTE EOSINOPHIL / ABSOLUTE LYMPHOCYTE / ABSOLUTE MONOCYTE / ABSOLUTE SEGMENTED NEUTROPHIL / BASOPHIL / EOSINOPHIL / ERYTHROCYTE COUNT / HEMATOCRIT / HEMOGLOBIN / LEUKOCYTE COUNT / LYMPHOCYTE / MEAN CORPUSCULAR HEMOGLOBIN / MEAN CORPUSCULAR VOLUME / MONOCYTE / NEUTROPHIL / NUCLEATED RED BLOOD CELLS / PLATELET COUNT: tissue Blood; for ALANINE AMINOTRANSFERASE / ALBUMIN / ALKALINE PHOSPHATASE / ASPARTATE AMINOTRANSFERASE / BLOOD UREA NITROGEN / CARBON DIOXIDE / CHLORIDE / CHOLESTEROL / CREATINE PHOSPHOKINASE / CREATININE / GLUCOSE / LACTATE DEHYDROGENASE / LIPASE / PHOSPHORUS / POTASSIUM / SODIUM / TOTAL BILIRUBIN / TOTAL PROTEIN / URIC ACID: tissue Plasma
# [1] = 0 mg/kg, 72 h, dose level Control, time 3 day
# [2] = 0 mg/kg, 120 h, dose level Control, time 5 day
# [3] = 70 mg/kg, 72 h, dose level M1, time 3 day
compound,measurement,setting,value
CCCCCCCCc1ccc(O)cc1 [4-OCTYLPHENOL],ABSOLUTE BASOPHIL,[1],0 CELLS/uL
same,ABSOLUTE EOSINOPHIL,[1],0 CELLS/uL
same,ABSOLUTE LYMPHOCYTE,[1],11091.17 CELLS/uL
same,ABSOLUTE MONOCYTE,[1],172.17 CELLS/uL
same,ABSOLUTE SEGMENTED NEUTROPHIL,[1],1186.67 CELLS/uL
same,BASOPHIL,[1],0%
same,EOSINOPHIL,[1],0%
same,ERYTHROCYTE COUNT,[1],5.87 x10E6/uL
same,HEMATOCRIT,[1],36.87%
same,HEMOGLOBIN,[1],14.03 G/DL
same,LEUKOCYTE COUNT,[1],12.45 x10E3/uL
same,LYMPHOCYTE,[1],88.67%
same,MEAN CORPUSCULAR HEMOGLOBIN,[1],23.93 pg
same,MEAN CORPUSCULAR VOLUME,[1],62.73 fL
same,MONOCYTE,[1],1.5%
same,NEUTROPHIL,[1],9.83%
same,NUCLEATED RED BLOOD CELLS,[1],0 /100WBC
same,PLATELET COUNT,[1],1150.33 x10E3/uL
same,ALANINE AMINOTRANSFERASE,[1],67.17 u/L
same,ALBUMIN,[1],4.03 G/DL
same,ALKALINE PHOSPHATASE,[1],462.5 u/L
same,ASPARTATE AMINOTRANSFERASE,[1],88 u/L
same,BLOOD UREA NITROGEN,[1],13.17 mg/dL
same,CARBON DIOXIDE,[1],29.33 mmol/L
same,CHLORIDE,[1],101 MEQ/L
same,CHOLESTEROL,[1],69.17 mg/dL
same,CREATINE PHOSPHOKINASE,[1],292.5 u/L
same,CREATININE,[1],0.17 mg/dL
same,GLUCOSE,[1],167.5 mg/dL
same,LACTATE DEHYDROGENASE,[1],198.5 u/L
same,LIPASE,[1],10.67 u/L
same,PHOSPHORUS,[1],11.73 mg/dL
same,POTASSIUM,[1],5.91 MEQ/L
same,SODIUM,[1],143.3 MEQ/L
same,TOTAL BILIRUBIN,[1],0.18 mg/dL
same,TOTAL PROTEIN,[1],5.7 G/DL
same,URIC ACID,[1],1.3 mg/dL
same,ABSOLUTE BASOPHIL,[2],0 CELLS/uL
same,ABSOLUTE EOSINOPHIL,[2],64.33 CELLS/uL
same,ABSOLUTE LYMPHOCYTE,[2],12494.67 CELLS/uL
same,ABSOLUTE MONOCYTE,[2],117 CELLS/uL
same,ABSOLUTE SEGMENTED NEUTROPHIL,[2],1340.67 CELLS/uL
same,BASOPHIL,[2],0%
same,EOSINOPHIL,[2],0.33%
same,ERYTHROCYTE COUNT,[2],5.82 x10E6/uL
same,HEMATOCRIT,[2],36.97%
same,HEMOGLOBIN,[2],14.18 G/DL
same,LEUKOCYTE COUNT,[2],14.02 x10E3/uL
same,LYMPHOCYTE,[2],89%
same,MEAN CORPUSCULAR HEMOGLOBIN,[2],24.42 pg
same,MEAN CORPUSCULAR VOLUME,[2],63.52 fL
same,MONOCYTE,[2],0.83%
same,NEUTROPHIL,[2],9.83%
same,NUCLEATED RED BLOOD CELLS,[2],0 /100WBC
same,PLATELET COUNT,[2],1097.83 x10E3/uL
same,ALANINE AMINOTRANSFERASE,[2],58.83 u/L
same,ALBUMIN,[2],3.92 G/DL
same,ALKALINE PHOSPHATASE,[2],414.17 u/L
same,ASPARTATE AMINOTRANSFERASE,[2],89.17 u/L
same,BLOOD UREA NITROGEN,[2],16.83 mg/dL
same,CARBON DIOXIDE,[2],29.17 mmol/L
same,CHLORIDE,[2],100.33 MEQ/L
same,CHOLESTEROL,[2],54.5 mg/dL
same,CREATINE PHOSPHOKINASE,[2],386.17 u/L
same,CREATININE,[2],0.23 mg/dL
same,GLUCOSE,[2],184.17 mg/dL
same,LACTATE DEHYDROGENASE,[2],229.17 u/L
same,LIPASE,[2],10.83 u/L
same,PHOSPHORUS,[2],10.88 mg/dL
same,POTASSIUM,[2],5.97 MEQ/L
same,SODIUM,[2],142.2 MEQ/L
same,TOTAL BILIRUBIN,[2],0.12 mg/dL
same,TOTAL PROTEIN,[2],5.63 G/DL
same,URIC ACID,[2],1.55 mg/dL
same,ABSOLUTE BASOPHIL,[3],0 CELLS/uL
same,ABSOLUTE EOSINOPHIL,[3],0 CELLS/uL
same,ABSOLUTE LYMPHOCYTE,[3],11265.33 CELLS/uL
same,ABSOLUTE MONOCYTE,[3],137 CELLS/uL
same,ABSOLUTE SEGMENTED NEUTROPHIL,[3],1431 CELLS/uL
same,BASOPHIL,[3],0%
same,EOSINOPHIL,[3],0%
same,ERYTHROCYTE COUNT,[3],5.68 x10E6/uL
same,HEMATOCRIT,[3],36.37%
same,HEMOGLOBIN,[3],13.93 G/DL
same,LEUKOCYTE COUNT,[3],12.83 x10E3/uL
same,LYMPHOCYTE,[3],88%
same,MEAN CORPUSCULAR HEMOGLOBIN,[3],24.57 pg
same,MEAN CORPUSCULAR VOLUME,[3],64.1 fL
same,MONOCYTE,[3],1%
same,NEUTROPHIL,[3],11%
same,NUCLEATED RED BLOOD CELLS,[3],0 /100WBC
same,PLATELET COUNT,[3],1181.67 x10E3/uL
same,ALANINE AMINOTRANSFERASE,[3],74 u/L
same,ALBUMIN,[3],3.87 G/DL
same,ALKALINE PHOSPHATASE,[3],534.33 u/L
same,ASPARTATE AMINOTRANSFERASE,[3],88.33 u/L
same,BLOOD UREA NITROGEN,[3],15 mg/dL
same,CARBON DIOXIDE,[3],27.33 mmol/L
same,CHLORIDE,[3],102.33 MEQ/L
same,CHOLESTEROL,[3],67 mg/dL
same,CREATINE PHOSPHOKINASE,[3],215 u/L
same,CREATININE,[3],0.13 mg/dL
same,GLUCOSE,[3],152.67 mg/dL
same,LACTATE DEHYDROGENASE,[3],181.67 u/L
same,LIPASE,[3],10 u/L
same,PHOSPHORUS,[3],11.4 mg/dL
same,POTASSIUM,[3],5.59 MEQ/L
same,SODIUM,[3],144.4 MEQ/L
same,TOTAL BILIRUBIN,[3],0.13 mg/dL
same,TOTAL PROTEIN,[3],5.53 G/DL
same,URIC ACID,[3],1.63 mg/dL

# — ChEMBL document CHEMBL3885881, “DrugMatrix”
